Data published in article PMC7174758, “Synthesis and Biological Evaluation of HDAC Inhibitors With a Novel Zinc Binding Group” (Frontiers in Chemistry, 2020).

Key:
[1] = target: T1, HDAC1 (Homo sapiens, UniProt Q13547); assay: Fluor de Lys HDAC1 assay kit; format: biochemical; conditions: three independent experiments, mean ± SD
T1 construct: purchased Enzo Life Sciences BML-AK511
Experimental: (§1) The generated fluorescence after the deacetylation of HDAC could be detected at the wavelengths of 485 nm (excitation) and 530 nm (emission) using the microplate reader (PerkinElmer, USA). The dose response of inhibition experiment was carried out in triplicate, and the IC50 data was calculated by GraphPad Prism 5.

[2] = target: T2, HDAC6 (Homo sapiens, UniProt Q9UBN7); assay: Fluor de Lys HDAC6 assay kit; format: biochemical
T2 construct: purchased Enzo Life Sciences BML-AK516
T2 sequence (Q9UBN7 1-1215): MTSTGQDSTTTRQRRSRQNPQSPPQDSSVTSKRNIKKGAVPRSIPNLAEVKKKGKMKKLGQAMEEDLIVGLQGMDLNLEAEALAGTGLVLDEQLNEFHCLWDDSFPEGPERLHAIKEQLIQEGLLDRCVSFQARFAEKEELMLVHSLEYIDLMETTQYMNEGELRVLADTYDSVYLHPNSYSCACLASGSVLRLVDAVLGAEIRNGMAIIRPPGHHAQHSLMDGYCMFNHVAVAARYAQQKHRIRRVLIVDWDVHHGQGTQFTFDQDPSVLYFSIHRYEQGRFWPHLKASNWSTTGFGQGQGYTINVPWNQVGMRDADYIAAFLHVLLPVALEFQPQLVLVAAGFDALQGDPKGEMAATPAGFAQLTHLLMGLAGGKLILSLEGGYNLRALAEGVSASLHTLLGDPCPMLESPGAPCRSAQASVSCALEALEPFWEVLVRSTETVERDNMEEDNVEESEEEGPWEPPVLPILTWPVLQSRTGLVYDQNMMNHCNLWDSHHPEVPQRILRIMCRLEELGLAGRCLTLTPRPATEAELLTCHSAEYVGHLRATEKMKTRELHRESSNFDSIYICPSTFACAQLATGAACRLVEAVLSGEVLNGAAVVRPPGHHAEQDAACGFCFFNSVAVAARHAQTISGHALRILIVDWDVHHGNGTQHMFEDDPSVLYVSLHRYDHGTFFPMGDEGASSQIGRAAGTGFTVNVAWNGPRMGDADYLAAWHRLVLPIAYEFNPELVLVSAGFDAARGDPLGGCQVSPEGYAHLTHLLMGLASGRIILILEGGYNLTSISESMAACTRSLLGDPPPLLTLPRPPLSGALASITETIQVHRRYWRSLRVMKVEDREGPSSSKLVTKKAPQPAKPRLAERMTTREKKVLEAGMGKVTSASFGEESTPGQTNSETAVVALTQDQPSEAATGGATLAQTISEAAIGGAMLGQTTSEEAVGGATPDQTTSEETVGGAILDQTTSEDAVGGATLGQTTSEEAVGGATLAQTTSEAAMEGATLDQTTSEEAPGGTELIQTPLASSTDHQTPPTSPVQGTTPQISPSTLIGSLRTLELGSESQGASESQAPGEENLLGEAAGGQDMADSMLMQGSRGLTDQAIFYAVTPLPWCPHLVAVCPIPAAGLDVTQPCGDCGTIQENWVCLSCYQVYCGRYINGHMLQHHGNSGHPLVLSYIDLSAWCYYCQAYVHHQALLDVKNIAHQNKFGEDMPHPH
Experimental: as §1

[3] = system: acetyl-histone H3; assay: Western blot, acetylation of histone H3 in Hela cells; format: cell-based, human; conditions: 20 and 40 μM, 48 h
Experimental: (§2) Afterwards, the Hela cells were collected using centrifugation, and were then lysed by the lysate, which were carried out further centrifugation at 12,000 rpm for 30 min. The protein of supernatant obtained by centrifugation was quantified using the BCA kit (Beijing Solarbio Science & Technology Co., Ltd.), and the protein extracts were mixed with the SDS-PAGE protein loading buffer (Beijing Solarbio Science & Technology Co., Ltd.), which were subject to 100°C water bath for 10 min to sufficiently denaturate. The gel was gelatinized using the SDS Gel Kit (Beijing Solarbio Science & Technology Co., Ltd.) and protein extracts were separated by protein SDS-polyacrylamide gel electrophoresis and then transferred to Immobilon-NC Membrane (Beijing Solarbio Science & Technology Co., Ltd.). After the blocking with 5% non-fat dried milk in TBS for 90 min at room temperature, the membranes were incubated overnight with specific primary antibodies (AFFINITY BIOSCIENCE) at 4°C, which were further incubated with secondary antibodies for 2 h after washing three times with TBST. The chemiluminescence analysis system was applied to label the target protein with a specific primary antibody and the target protein was detected using a specific antibody.

[4] = system: acetyl-α-tubulin; assay: Western blot, acetylation of α-tubulin in Hela cells; format: cell-based, human; conditions: 20 and 40 μM, 48 h
Experimental: as §2

[5] = system: A549; assay: MTT anti-proliferative assay, A549; conditions: Homo sapiens, A549, 48 h, read-out: IC50 A549
Experimental: (§3) The antitumor bioactivities of the tittle compounds in vitro were firstly evaluated against four different human tumor cell lines [breast lung cancer (A549), cervical cancer (Hela), liver cancer (HepG2), breast cancer (MCF-7)] via MTT assay, and a normal cell line [human lung fibroblast (WI-38)] was applied to assess the safety of the synthesized compounds. […] In this study, the tested compounds were diluted to the required concentration with culture medium, and growth inhibitory effects against the cell lines of the tittle compounds were determined by MTT colorimetric assay. […] The microplate reader was adopted to record the absorbance at 490 nm for each well of the plates.

[6] = system: Hela; assay: MTT anti-proliferative assay, Hela; conditions: Homo sapiens, 48 h, read-out: IC50 Hela
Experimental: as §3

[7] = system: HepG2; assay: MTT anti-proliferative assay, HepG2; conditions: Homo sapiens, HepG2, 48 h, read-out: IC50 HepG2
Experimental: as §3

[8] = system: MCF-7; assay: MTT anti-proliferative assay, MCF-7; conditions: Homo sapiens, MCF7, 48 h, read-out: IC50 MCF-7
Experimental: as §3

[9] = system: WI-38; assay: MTT cytotoxicity assay, normal cell line WI-38; conditions: Homo sapiens, WI-38, 48 h, read-out: IC50 WI-38
Experimental: as §3

[10] = system: HDACs extracted from Hela cervical cancer cells; assay: Enzyme inhibition assay, Hela nuclear extract (HDAC Inhibitor Drug Screening Kit); conditions: read-out: Hela nuclear extract IC50; mean ± SD of three experiments

T1 sequence (Q13547 whole entry): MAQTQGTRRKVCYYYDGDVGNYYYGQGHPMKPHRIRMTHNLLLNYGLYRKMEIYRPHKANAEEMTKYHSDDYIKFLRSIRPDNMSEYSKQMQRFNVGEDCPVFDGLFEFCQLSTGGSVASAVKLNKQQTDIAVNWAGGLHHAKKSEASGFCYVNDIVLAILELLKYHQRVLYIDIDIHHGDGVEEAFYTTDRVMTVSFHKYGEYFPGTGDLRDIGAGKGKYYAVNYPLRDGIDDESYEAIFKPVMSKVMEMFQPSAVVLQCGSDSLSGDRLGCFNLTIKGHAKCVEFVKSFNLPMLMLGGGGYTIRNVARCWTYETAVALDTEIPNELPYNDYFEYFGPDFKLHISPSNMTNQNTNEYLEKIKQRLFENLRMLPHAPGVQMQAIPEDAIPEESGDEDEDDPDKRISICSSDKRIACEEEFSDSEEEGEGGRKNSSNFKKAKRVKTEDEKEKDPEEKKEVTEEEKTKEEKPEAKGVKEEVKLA

IC50 [1]: 56.5 ± 2.7 µM
inhibitory activity on HDAC6 relative to HDAC1 ([2]; HDAC6 vs HDAC1): more than ten folds
IC50 ([2]; three independent experiments, mean ± SD): 4.2 ± 1.27 µM
melting point: 147.6 to 148.5 °C
IC50 [5]: 26.5 ± 0.26 µM
IC50 [6]: 13.7 ± 1.31 µM
IC50 [7]: 28.4 ± 0.65 µM
IC50 [8]: 40.1 ± 7.05 µM
IC50 [10]: 22.5 ± 5.2 µM
SMILES: O=C(CCCCCNC(=O)c1ccc(-c2ccccc2)cc1)NCCO [b8, N-(6-((2-hydroxyethyl)amino)-6-oxohexyl)-[1, 1'-biphenyl]-4-carboxamide]
acetylation level of histone H3 [3]: insensitive
acetylation level of α-Tubulin [4]: increase
IC50 [9]: 95.9 ± 4.28 µM
